Experimental data from the supplement of paper PMC11451515.

Tested on: SEM cells
Assay: cell viability relative to DMSO control; higher = less cytotoxic
Details: 48 h
In short: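 Three leukemia lines were tested: NOMO1 and SEM at 500 cells/well and P12-Ichikawa at 1000 cells/well. Each was adapted for at least four passages in each medium and seeded in 5 μl in 1536-well plates, and library compounds in DMSO were pin-dosed from 47 μM to 0.79 nM in 11 threefold steps. After 48 h at 37°C, CellTiter-Glo One luminescence was read. Viability is a percentage relative to DMSO wells on each plate, with cell-free wells as background.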

[1] = HPLM + 10% dialyzed FBS, 0.000781 µM
[2] = HPLM + 10% dialyzed FBS, 0.00234 µM
[3] = HPLM + 10% dialyzed FBS, 0.00702 µM
[4] = HPLM + 10% dialyzed FBS, 0.0211 µM
[5] = HPLM + 10% dialyzed FBS, 0.0632 µM
[6] = HPLM + 10% dialyzed FBS, 0.19 µM
[7] = HPLM + 10% dialyzed FBS, 0.569 µM
[8] = HPLM + 10% dialyzed FBS, 1.71 µM
[9] = HPLM + 10% dialyzed FBS, 5.12 µM
[10] = HPLM + 10% dialyzed FBS, 15.4 µM
[11] = HPLM + 10% dialyzed FBS, 46.1 µM
[12] = RPMI 5 mM glucose + 10% FBS, 0.000781 µM
[13] = RPMI 5 mM glucose + 10% FBS, 0.00234 µM
[14] = RPMI 5 mM glucose + 10% FBS, 0.00702 µM
[15] = RPMI 5 mM glucose + 10% FBS, 0.0211 µM
[16] = RPMI 5 mM glucose + 10% FBS, 0.0632 µM
[17] = RPMI 5 mM glucose + 10% FBS, 0.19 µM
[18] = RPMI 5 mM glucose + 10% FBS, 0.569 µM
[19] = RPMI 5 mM glucose + 10% FBS, 1.71 µM
[20] = RPMI 5 mM glucose + 10% FBS, 5.12 µM
[21] = RPMI 5 mM glucose + 10% FBS, 15.4 µM
[22] = RPMI 5 mM glucose + 10% FBS, 46.1 µM
[23] = RPMI 5 mM glucose + 10% dialyzed FBS, 0.000781 µM
[24] = RPMI 5 mM glucose + 10% dialyzed FBS, 0.00234 µM
[25] = RPMI 5 mM glucose + 10% dialyzed FBS, 0.00702 µM
[26] = RPMI 5 mM glucose + 10% dialyzed FBS, 0.0211 µM
[27] = RPMI 5 mM glucose + 10% dialyzed FBS, 0.0632 µM
[28] = RPMI 5 mM glucose + 10% dialyzed FBS, 0.19 µM
[29] = RPMI 5 mM glucose + 10% dialyzed FBS, 0.569 µM
[30] = RPMI 5 mM glucose + 10% dialyzed FBS, 1.71 µM
[31] = RPMI 5 mM glucose + 10% dialyzed FBS, 5.12 µM
[32] = RPMI 5 mM glucose + 10% dialyzed FBS, 15.4 µM
[33] = RPMI 5 mM glucose + 10% dialyzed FBS, 46.1 µM

CCOC(=O)N[C@@H]1CC[C@@H]2[C@@H](C1)C[C@H]1C(=O)O[C@H](C)[C@H]1[C@H]2/C=C/c1ccc(-c2cccc(F)c2)cn1
cell viability [1]: 86.6% | cell viability [2]: 87.5% | cell viability [3]: 102% | cell viability [4]: 111% | cell viability [5]: 105% | cell viability [6]: 104% | cell viability [7]: 111% | cell viability [8]: 99.5% | cell viability [9]: 112% | cell viability [10]: 104% | cell viability [11]: 75.7% | cell viability [12]: 95.9% | cell viability [13]: 81.8% | cell viability [14]: 98.5% | cell viability [15]: 107% | cell viability [16]: 111% | cell viability [17]: 107% | cell viability [18]: 106% | cell viability [19]: 103% | cell viability [20]: 103% | cell viability [21]: 100% | cell viability [22]: 23.3% | cell viability [23]: 108% | cell viability [24]: 87.3% | cell viability [25]: 110% | cell viability [26]: 112% | cell viability [27]: 117% | cell viability [28]: 115% | cell viability [29]: 108% | cell viability [30]: 119% | cell viability [31]: 112% | cell viability [32]: 112% | cell viability [33]: 37.1%

N#Cc1ccc(NC(=O)Nc2ccccc2Br)c2nn[nH]c12
cell viability [1]: 81.8% | cell viability [2]: 93.9% | cell viability [3]: 110% | cell viability [4]: 103% | cell viability [5]: 107% | cell viability [6]: 108% | cell viability [7]: 123% | cell viability [8]: 126% | cell viability [9]: 125% | cell viability [10]: 109% | cell viability [11]: 112% | cell viability [12]: 80.7% | cell viability [13]: 111% | cell viability [14]: 97.9% | cell viability [15]: 91.4% | cell viability [16]: 113% | cell viability [17]: 103% | cell viability [18]: 101% | cell viability [19]: 101% | cell viability [20]: 107% | cell viability [21]: 104% | cell viability [22]: 81.7% | cell viability [23]: 93.1% | cell viability [24]: 103% | cell viability [25]: 108% | cell viability [26]: 99% | cell viability [27]: 116% | cell viability [28]: 129% | cell viability [29]: 125% | cell viability [30]: 124% | cell viability [31]: 121% | cell viability [32]: 114% | cell viability [33]: 107%

Cc1cccc(-c2[nH]c(C(C)(C)C)nc2-c2ccc3c(c2)OCO3)n1
cell viability [1]: 103% | cell viability [2]: 98.7% | cell viability [3]: 114% | cell viability [4]: 105% | cell viability [5]: 104% | cell viability [6]: 120% | cell viability [7]: 113% | cell viability [8]: 121% | cell viability [9]: 109% | cell viability [10]: 10.8% | cell viability [11]: 7.86% | cell viability [23]: 92.1% | cell viability [24]: 96.8% | cell viability [25]: 100% | cell viability [26]: 93% | cell viability [27]: 120% | cell viability [28]: 99.7% | cell viability [29]: 107% | cell viability [30]: 121% | cell viability [31]: 111% | cell viability [32]: 10.4% | cell viability [33]: 4.24%

CC(C)n1cnc2c(NCCc3ccc(O)cc3)nc(-c3csc4ccccc34)nc21
cell viability [1]: 105% | cell viability [2]: 91% | cell viability [3]: 99.5% | cell viability [4]: 114% | cell viability [5]: 114% | cell viability [6]: 139% | cell viability [7]: 116% | cell viability [8]: 122% | cell viability [9]: 122% | cell viability [10]: 39.8% | cell viability [11]: 10.4% | cell viability [12]: 111% | cell viability [13]: 103% | cell viability [14]: 102% | cell viability [15]: 108% | cell viability [16]: 101% | cell viability [17]: 125% | cell viability [18]: 129% | cell viability [19]: 99.2% | cell viability [20]: 77.2% | cell viability [21]: 8.37% | cell viability [22]: 8.04% | cell viability [23]: 106% | cell viability [24]: 97.7% | cell viability [25]: 103% | cell viability [26]: 110% | cell viability [27]: 114% | cell viability [28]: 127% | cell viability [29]: 132% | cell viability [30]: 122% | cell viability [31]: 57.7% | cell viability [32]: 11.4% | cell viability [33]: 7.89%

CC(C)(C)OC(=O)Nc1ccc(-c2cc(C(=O)NCCCCCCC(=O)NO)no2)cc1
cell viability [1]: 87.5% | cell viability [2]: 87.7% | cell viability [3]: 95.7% | cell viability [4]: 102% | cell viability [5]: 77.4% | cell viability [6]: 99.6% | cell viability [7]: 102% | cell viability [8]: 72.4% | cell viability [9]: 33.5% | cell viability [10]: 4.09% | cell viability [11]: 4.02% | cell viability [12]: 94.9% | cell viability [13]: 88.1% | cell viability [14]: 102% | cell viability [15]: 101% | cell viability [16]: 74.7% | cell viability [17]: 101% | cell viability [18]: 107% | cell viability [19]: 44.2% | cell viability [20]: 30.2% | cell viability [21]: 4.09% | cell viability [22]: 4.76% | cell viability [23]: 84.3% | cell viability [24]: 83.2% | cell viability [25]: 79.8% | cell viability [26]: 88.9% | cell viability [27]: 79.7% | cell viability [28]: 90.7% | cell viability [29]: 87.7% | cell viability [30]: 28.1% | cell viability [31]: 20.1% | cell viability [32]: 3.52% | cell viability [33]: 3.79%

OC[C@H]1OC(OC2=CC3=C(C(=C2)O)C(=O)\C(=C/O3)C4=CC=C(O)C=C4)[C@H](O)[C@@H](O)[C@@H]1O (stereo partly drawn)
cell viability [1]: 93.7% | cell viability [2]: 92.9% | cell viability [3]: 92% | cell viability [4]: 98.1% | cell viability [5]: 93% | cell viability [6]: 79.9% | cell viability [7]: 69.7% | cell viability [8]: 93.4% | cell viability [9]: 81.6% | cell viability [10]: 78.6% | cell viability [11]: 65.3% | cell viability [12]: 97.9% | cell viability [13]: 86.8% | cell viability [14]: 111% | cell viability [15]: 102% | cell viability [16]: 117% | cell viability [17]: 89.6% | cell viability [18]: 89% | cell viability [19]: 98% | cell viability [20]: 86.4% | cell viability [21]: 92.4% | cell viability [22]: 94.1% | cell viability [23]: 86.3% | cell viability [24]: 89.1% | cell viability [25]: 114% | cell viability [26]: 94.7% | cell viability [27]: 106% | cell viability [28]: 88.3% | cell viability [29]: 89.8% | cell viability [30]: 96.6% | cell viability [31]: 90.3% | cell viability [32]: 90.1% | cell viability [33]: 95.8%

N#C/C(=C1/Nc2ccccc2S1)c1ccnc(OCc2ccc(CN3CCOCC3)cc2)n1
cell viability [1]: 103% | cell viability [2]: 97.2% | cell viability [3]: 112% | cell viability [4]: 101% | cell viability [5]: 109% | cell viability [6]: 108% | cell viability [7]: 106% | cell viability [8]: 100% | cell viability [9]: 121% | cell viability [10]: 108% | cell viability [11]: 99.3% | cell viability [12]: 114% | cell viability [13]: 98.1% | cell viability [14]: 107% | cell viability [15]: 115% | cell viability [16]: 99.4% | cell viability [17]: 115% | cell viability [18]: 115% | cell viability [19]: 117% | cell viability [20]: 102% | cell viability [21]: 110% | cell viability [22]: 87.7% | cell viability [23]: 85% | cell viability [24]: 84.4% | cell viability [25]: 118% | cell viability [26]: 110% | cell viability [27]: 111% | cell viability [28]: 100% | cell viability [29]: 113% | cell viability [30]: 113% | cell viability [31]: 104% | cell viability [32]: 109% | cell viability [33]: 87.8%

Cn1cnc([N+](=O)[O-])c1Sc1ncnc2nc[nH]c12
cell viability [1]: 83.9% | cell viability [2]: 90.7% | cell viability [3]: 99.3% | cell viability [4]: 88% | cell viability [5]: 101% | cell viability [6]: 100% | cell viability [7]: 95.7% | cell viability [8]: 83% | cell viability [9]: 103% | cell viability [10]: 24.4% | cell viability [11]: 20.8% | cell viability [12]: 87.3% | cell viability [13]: 86.8% | cell viability [14]: 93.4% | cell viability [15]: 108% | cell viability [16]: 88.2% | cell viability [17]: 92.1% | cell viability [18]: 100% | cell viability [19]: 43.5% | cell viability [20]: 23.8% | cell viability [21]: 24.9% | cell viability [22]: 15.4% | cell viability [23]: 90.3% | cell viability [24]: 82.8% | cell viability [25]: 84.6% | cell viability [26]: 71.8% | cell viability [27]: 88.9% | cell viability [28]: 89.1% | cell viability [29]: 77% | cell viability [30]: 32.1% | cell viability [31]: 28.7% | cell viability [32]: 20.7% | cell viability [33]: 14.3%
